Legend:
[1] = Fraction absorbed in rat; type: ADME; settings: in vivo, read-out: Fabs
[2] = Fraction absorbed in cynomolgus monkey; type: ADME, Macaca fascicularis; settings: in vivo, read-out: Fabs
[3] = Fraction absorbed in dog; type: ADME, Canis lupus familiaris; settings: in vivo, read-out: Fabs
[4] = target: T1, Nonstructural protein 5A (Hepatitis C virus) (UniProt Q5L478); assay: Potency index, ratio of EC50 of ledipasvir to EC50 of test compound for inhibition of NS5A in HCV genotype 3a infected in human HuH7 replicon cells assessed as reduction in viral replication after 3 days by luciferase reporter gene assay; type: cell-based; settings: Hepatitis C virus subtype 3a
T1 sequence (whole entry): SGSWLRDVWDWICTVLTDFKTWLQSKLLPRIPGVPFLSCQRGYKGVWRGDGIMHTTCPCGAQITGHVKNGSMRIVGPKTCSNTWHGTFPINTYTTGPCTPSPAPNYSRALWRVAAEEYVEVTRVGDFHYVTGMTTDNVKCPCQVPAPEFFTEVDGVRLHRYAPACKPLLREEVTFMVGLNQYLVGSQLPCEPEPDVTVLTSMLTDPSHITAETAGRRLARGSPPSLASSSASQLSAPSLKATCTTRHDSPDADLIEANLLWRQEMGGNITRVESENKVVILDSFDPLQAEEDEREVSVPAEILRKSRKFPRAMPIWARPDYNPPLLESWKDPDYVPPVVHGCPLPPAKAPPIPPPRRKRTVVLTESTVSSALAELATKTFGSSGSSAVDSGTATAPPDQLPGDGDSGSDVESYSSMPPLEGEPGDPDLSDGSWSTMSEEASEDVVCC

[5] = target: T1, Nonstructural protein 5A (Hepatitis C virus); assay: Potency index, ratio of EC50 of ledipasvir to EC50 of test compound for inhibition of NS5A in HCV genotype 2a J6 infected in human HuH7 replicon cells assessed as reduction in viral replication after 3 days by luciferase reporter gene assay; type: cell-based; settings: Hepatitis C virus subtype 2a
[6] = target: T1, Nonstructural protein 5A (Hepatitis C virus); assay: Potency index, ratio of EC50 of ledipasvir to EC50 of test compound for inhibition of NS5A in HCV genotype 2b infected in human HuH7 replicon cells assessed as reduction in viral replication after 3 days by luciferase reporter gene assay; type: cell-based; settings: Hepatitis C virus subtype 2b

Structure (SMILES)	Fa [1] [%]	Fa [2] [%]	Fa [3] [%]	Ratio EC50 [4]	Ratio EC50 [5]	Ratio EC50 [6]
COC[C@H]1C[C@@H](c2ncc(-c3ccc4c(c3)COc3cc5c(ccc6nc([C@@H]7C[C@@H]8C[C@H]8N7C(=O)[C@@H](NC(=O)OC)C(C)C)[nH]c65)cc3-4)[nH]2)N(C(=O)[C@H](NC(=O)OC)c2ccccc2)C1	13	–	–	–	–	–
COC[C@H]1C[C@@H](c2nc3ccc4cc5c(cc4c3[nH]2)OCc2cc(-c3cnc([C@@H]4CC[C@H](C)N4C(=O)[C@@H](NC(=O)OC)C(C)C)[nH]3)ccc2-5)N(C(=O)[C@@H](NC(=O)OC)C(C)C)C1	13	64	–	–	–	–
COC[C@H]1C[C@@H](c2ncc(-c3cc4c5c(c3)OCc3cc(-c6cnc([C@@H]7CC[C@H](C)N7C(=O)[C@@H](NC(=O)OC)C(C)C)[nH]6)cc(c3-5)OC4)[nH]2)N(C(=O)[C@H](NC(=O)OC)c2ccccc2)C1	29	26	–	–	–	–
COC(=O)N[C@H](C(=O)N1CCC[C@H]1c1ncc(-c2cc3c4c(c2)COc2cc(-c5cnc([C@@H]6CCCN6C(=O)[C@@H](NC(=O)OC)C(C)C)[nH]5)cc(c2-4)OC3)[nH]1)C(C)C	18	–	100	–	–	–
COC(=O)N[C@H](C(=O)N1CCC[C@H]1c1ncc(-c2ccc3c(c2)COc2c-3ccc3c2ccc2nc([C@@H]4CCCN4C(=O)[C@@H](NC(=O)OC)C(C)C)[nH]c23)[nH]1)C(C)C	31	–	54	–	–	–
COC(=O)N[C@H](C(=O)N1CCC[C@H]1c1ncc(-c2ccc3c(c2)COc2cc4c(ccc5nc([C@@H]6CCCN6C(=O)[C@@H](NC(=O)OC)C(C)C)[nH]c54)cc2-3)[nH]1)C(C)C	15	–	50	–	–	–
COC(=O)N[C@H](C(=O)N1[C@@H](C)CC[C@H]1c1ncc(-c2ccc3c(c2)COc2cc4c(ccc5nc([C@@H]6CC[C@H](C)N6C(=O)[C@@H](NC(=O)OC)C(C)C)[nH]c54)cc2-3)[nH]1)C(C)C	27	53	100	–	–	–
COC(=O)N[C@H](C(=O)N1CCC[C@H]1c1ncc(-c2cc3c4c(c2)OCc2cc(-c5cnc([C@@H]6CCCN6C(=O)[C@@H](NC(=O)OC)C(C)C)[nH]5)cc(c2-4)OC3)[nH]1)C(C)C	23	15	70	4800	28	300
COC(=O)N[C@H](C(=O)N1CCC[C@H]1c1ncc(-c2ccc3c(c2)COc2cc4c(ccc5nc([C@@H]6CCCN6C(=O)[C@H](NC(=O)OC)c6ccccc6)[nH]c54)cc2-3)[nH]1)C(C)C	13	16	56	–	–	–
COC(=O)N[C@H](C(=O)N1CCC[C@H]1c1ncc(-c2ccc3c(c2)COc2cc4c(ccc5nc([C@@H]6C[C@H](C)CN6C(=O)[C@@H](NC(=O)OC)C(C)C)[nH]c54)cc2-3)[nH]1)C(C)C	10	–	–	–	–	–
COC(=O)N[C@@H](C(=O)N1C[C@@H](C)C[C@H]1c1ncc(-c2cc3c4c(c2)OCc2cc(-c5cnc([C@@H]6C[C@H](C)CN6C(=O)[C@H](NC(=O)OC)c6ccccc6)[nH]5)cc(c2-4)OC3)[nH]1)c1ccccc1	2	–	30	–	–	–
